{"source": "patent US20260232767A1", "about": "“INTERLEUKIN-23 RECEPTOR ANTAGONIST PEPTIDES FOR USE IN THE TREATMENT OF PSORIASIS” (Janssen Pharmaceutica NV, priority 2023, published 2026)", "test_system": "subjects with moderate-to-severe plaque psoriasis", "assay": "Safety, adverse events, Example 1", "details": "16-week study", "description": "Adverse events were reported and followed by the investigator. Any clinically relevant changes occurring during the study were recorded. Any clinically significant abnormalities persisting at the end of the study/early withdrawal were followed by the investigator until resolution or until a clinically stable condition was reached if possible. The evaluations of safety and tolerability include: physical examinations, vital signs, electrocardiograms, clinical safety laboratory assessments, review of concomitant medication, pregnancy testing, suicidal ideation evaluation via the Columbia—Suicide Severity Rating Scale, and tuberculosis evaluation.\nSafety was assessed among all randomized and treated participants who received at least 1 dose of study agent (partial or complete) according to the assigned treatment received during the study. This is also referred to as the safety analysis set.", "data": [{"smiles": "CC(=O)NCCCC[C@@H]1NC(=O)[C@H](Cc2c[nH]c3c(C)cccc23)NC(=O)[C@H]([C@@H](C)O)NC(=O)[C@H](CC(N)=O)NC(=O)[C@@H](NC(C)=O)C(C)(C)SSC(C)(C)[C@@H](C(=O)N[C@@H](Cc2ccc(OCCN)cc2)C(=O)N[C@@H](Cc2ccc3ccccc3c2)C(=O)NC2(C(=O)N[C@@H](CCC(=O)O)C(=O)N[C@@H](CC(N)=O)C(=O)N[C@@H](Cc3cccnc3)C(=O)N(C)CC(N)=O)CCOCC2)NC1=O", "note": "[IL-23 receptor antagonist peptide, Ac-[Pen]*-N-T-[W(7-Me)]-[Lys(Ac)]-[Pen]*-Phe[4-(2-aminoethoxy)]-[2-Nal]-[THP]-E-N-[3-Pal]-Sarc-NH2 (*[Pen]-[Pen]* formdisulfidebond)]", "values": [{"measurement": "COVID-19, subjects", "setting": "25 mg BID", "value": "(19.5%)"}, {"measurement": "Diarrhea, subjects", "setting": "25 mg BID", "value": "(4.9%)"}, {"measurement": "Discontinued study agent because of adverse events, subjects", "setting": "25 mg BID", "value": "(2.3%)"}, {"measurement": "Gastrointestinal disorders, subjects", "setting": "25 mg BID", "value": "(9.8%)"}, {"measurement": "Headache, subjects", "setting": "25 mg BID", "value": "(2.4%)"}, {"measurement": "Infections and infestations, subjects", "setting": "25 mg BID", "value": "(34.1%)"}, {"measurement": "Nasopharyngitis, subjects", "setting": "25 mg BID", "value": "(7.3%)"}, {"measurement": "Nervous system disorders, subjects", "setting": "25 mg BID", "value": "(4.9%)"}, {"measurement": "Respiratory, thoracic and mediastinal disorders, subjects", "setting": "25 mg BID", "value": 0}, {"measurement": "Subjects with 1 or more Adverse events", "setting": "25 mg BID", "value": "(48.8%)"}, {"measurement": "Upper respiratory tract infection, subjects", "setting": "25 mg BID", "value": 0}, {"measurement": "COVID-19, subjects", "setting": "25 mg QD", "value": "(11.6%)"}, {"measurement": "Diarrhea, subjects", "setting": "25 mg QD", "value": "(4.7%)"}, {"measurement": "Discontinued study agent because of adverse events, subjects", "setting": "25 mg QD", "value": "(7.0%)"}, {"measurement": "Gastrointestinal disorders, subjects", "setting": "25 mg QD", "value": "(7.0%)"}, {"measurement": "Headache, subjects", "setting": "25 mg QD", "value": 0}, {"measurement": "Infections and infestations, subjects", "setting": "25 mg QD", "value": "(34.9%)"}, {"measurement": "Nasopharyngitis, subjects", "setting": "25 mg QD", "value": "(2.3%)"}, {"measurement": "Nervous system disorders, subjects", "setting": "25 mg QD", "value": 0}, {"measurement": "Respiratory, thoracic and mediastinal disorders, subjects", "setting": "25 mg QD", "value": "(2.3%)"}, {"measurement": "Subjects with 1 or more Adverse events", "setting": "25 mg QD", "value": "(46.5%)"}, {"measurement": "Upper respiratory tract infection, subjects", "setting": "25 mg QD", "value": "(7.0%)"}, {"measurement": "COVID-19, subjects", "setting": "50 mg QD", "value": "(7.0%)"}, {"measurement": "Diarrhea, subjects", "setting": "50 mg QD", "value": "(9.3%)"}, {"measurement": "Discontinued study agent because of adverse events, subjects", "setting": "50 mg QD", "value": "(2.3%)"}, {"measurement": "Gastrointestinal disorders, subjects", "setting": "50 mg QD", "value": "(14.0%)"}, {"measurement": "Headache, subjects", "setting": "50 mg QD", "value": "(2.3%)"}, {"measurement": "Infections and infestations, subjects", "setting": "50 mg QD", "value": "(39.5%)"}, {"measurement": "Nasopharyngitis, subjects", "setting": "50 mg QD", "value": "(18.6%)"}, {"measurement": "Nervous system disorders, subjects", "setting": "50 mg QD", "value": "(7.0%)"}, {"measurement": "Respiratory, thoracic and mediastinal disorders, subjects", "setting": "50 mg QD", "value": "(2.3%)"}, {"measurement": "Subjects with 1 or more Adverse events", "setting": "50 mg QD", "value": "(60.5%)"}, {"measurement": "Upper respiratory tract infection, subjects", "setting": "50 mg QD", "value": 0}, {"measurement": "COVID-19, subjects", "setting": "100 mg BID", "value": "(9.5%)"}, {"measurement": "Diarrhea, subjects", "setting": "100 mg BID", "value": "(2.4%)"}, {"measurement": "Discontinued study agent because of adverse events, subjects", "setting": "100 mg BID", "value": 0}, {"measurement": "Gastrointestinal disorders, subjects", "setting": "100 mg BID", "value": "(16.7%)"}, {"measurement": "Headache, subjects", "setting": "100 mg BID", "value": "(2.4%)"}, {"measurement": "Infections and infestations, subjects", "setting": "100 mg BID", "value": "(26.2%)"}, {"measurement": "Nasopharyngitis, subjects", "setting": "100 mg BID", "value": "(4.8%)"}, {"measurement": "Nervous system disorders, subjects", "setting": "100 mg BID", "value": "(4.8%)"}, {"measurement": "Respiratory, thoracic and mediastinal disorders, subjects", "setting": "100 mg BID", "value": "(4.8%)"}, {"measurement": "Subjects with 1 or more Adverse events", "setting": "100 mg BID", "value": "(61.9%)"}, {"measurement": "Upper respiratory tract infection, subjects", "setting": "100 mg BID", "value": "(4.8%)"}, {"measurement": "COVID-19, subjects", "setting": "100 mg QD", "value": "(7.0%)"}, {"measurement": "Diarrhea, subjects", "setting": "100 mg QD", "value": "(2.3%)"}, {"measurement": "Discontinued study agent because of adverse events, subjects", "setting": "100 mg QD", "value": 0}, {"measurement": "Gastrointestinal disorders, subjects", "setting": "100 mg QD", "value": "(9.3%)"}, {"measurement": "Headache, subjects", "setting": "100 mg QD", "value": "(7.0%)"}, {"measurement": "Infections and infestations, subjects", "setting": "100 mg QD", "value": "(16.3%)"}, {"measurement": "Nasopharyngitis, subjects", "setting": "100 mg QD", "value": "(2.3%)"}, {"measurement": "Nervous system disorders, subjects", "setting": "100 mg QD", "value": "(7.0%)"}, {"measurement": "Respiratory, thoracic and mediastinal disorders, subjects", "setting": "100 mg QD", "value": "(7.0%)"}, {"measurement": "Subjects with 1 or more Adverse events", "setting": "100 mg QD", "value": "(44.2%)"}, {"measurement": "Upper respiratory tract infection, subjects", "setting": "100 mg QD", "value": 0}, {"measurement": "Deaths, MACE or malignancies", "value": "no deaths, MACE or malignancies"}, {"measurement": "COVID-19, subjects", "setting": "Combined doses", "value": "(10.8%)"}, {"measurement": "Diarrhea, subjects", "setting": "Combined doses", "value": "(4.7%)"}, {"measurement": "Discontinued study agent because of adverse events, subjects", "setting": "Combined doses", "value": "(2.3%)"}, {"measurement": "Gastrointestinal disorders, subjects", "setting": "Combined doses", "value": "(11.3%)"}, {"measurement": "Headache, subjects", "setting": "Combined doses", "value": "(2.8%)"}, {"measurement": "Infections and infestations, subjects", "setting": "Combined doses", "value": "(30.2%)"}, {"measurement": "Nasopharyngitis, subjects", "setting": "Combined doses", "value": "(7.1%)"}, {"measurement": "Nervous system disorders, subjects", "setting": "Combined doses", "value": "(4.7%)"}, {"measurement": "Respiratory, thoracic and mediastinal disorders, subjects", "setting": "Combined doses", "value": "(3.3%)"}, {"measurement": "Subjects with 1 or more Adverse events", "setting": "Combined doses", "value": "(52.4%)"}, {"measurement": "Upper respiratory tract infection, subjects", "setting": "Combined doses", "value": "(2.4%)"}, {"measurement": "Dose dependence of occurrence of AEs", "setting": "across treatment groups", "value": "no evidence of dose-dependent increase"}, {"measurement": "Tolerability", "setting": "all treatment groups", "value": "well-tolerated"}]}]}
